Values after ≈ are worked out from the molar mass of the structure shown. Read-outs that look alike come from different tables or passages of the source. Marks after values point to notes of the source that are not given here.
Columns and labels:
PI4KIIIβ = target: T1, PI4KIIIβ (Homo sapiens, UniProt Q9UBF8); test: In vitro kinase inhibition assay, PI4KIIIβ; type: biochemical; conditions: mean of at least three independent experiments; 20 μM ATP
T1 construct: Recombinant full length, HIS6 -tagged PI4KIIIβ was purchased from ProQinase; His6; purchased ProQinase (Germany)
T1 sequence (Q9UBF8 whole entry): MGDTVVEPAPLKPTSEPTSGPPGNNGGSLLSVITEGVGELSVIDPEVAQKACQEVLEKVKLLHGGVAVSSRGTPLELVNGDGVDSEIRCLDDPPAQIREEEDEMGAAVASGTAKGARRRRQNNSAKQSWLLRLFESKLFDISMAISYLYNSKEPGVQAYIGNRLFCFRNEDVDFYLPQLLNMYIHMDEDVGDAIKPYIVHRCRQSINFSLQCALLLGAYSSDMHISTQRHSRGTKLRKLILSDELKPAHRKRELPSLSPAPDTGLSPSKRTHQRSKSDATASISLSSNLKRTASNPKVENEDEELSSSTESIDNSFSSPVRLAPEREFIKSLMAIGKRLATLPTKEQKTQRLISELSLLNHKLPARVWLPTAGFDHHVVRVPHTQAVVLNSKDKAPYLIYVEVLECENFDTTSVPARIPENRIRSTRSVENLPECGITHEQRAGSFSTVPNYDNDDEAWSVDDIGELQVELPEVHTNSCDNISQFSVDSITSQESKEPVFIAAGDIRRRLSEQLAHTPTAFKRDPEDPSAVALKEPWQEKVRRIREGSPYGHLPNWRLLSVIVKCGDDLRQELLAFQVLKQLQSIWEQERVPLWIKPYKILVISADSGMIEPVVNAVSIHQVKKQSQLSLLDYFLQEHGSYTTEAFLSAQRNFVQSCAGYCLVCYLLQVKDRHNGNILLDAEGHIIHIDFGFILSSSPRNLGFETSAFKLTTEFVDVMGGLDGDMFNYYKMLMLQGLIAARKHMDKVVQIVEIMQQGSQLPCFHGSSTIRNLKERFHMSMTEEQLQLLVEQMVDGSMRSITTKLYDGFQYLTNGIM

[1] = Cytotoxicity assay (CellTiter-Glo 2.0) in Calu-3 cells; type: cell-based; conditions: human, half-maximal cytotoxic concentration, read-out: SARS-CoV-2 Calu-3 CC50
ZIKV = test: Direct yield reduction assay (DYRA), ZIKV in Huh7 cells; type: cell-based, Zika virus; conditions: for IC50: Zika virus, read-out: ZIKV Huh7 IC50
hRV2 [2] = test: Multicycle CPE reduction antiviral assay, hRV2 in HeLa cells; type: cell-based, human rhinovirus 2; conditions: 3 days
hRV14 [3] = test: Multicycle CPE reduction antiviral assay, hRV14 in HeLa cells; type: cell-based, human rhinovirus 14; conditions: 3 days
physchem = type: physicochemical; conditions: pH 7.4, aqueous buffer
in vitro [4] = type: in vitro ADME; conditions: PAMPA, pH 7.4; for Membrane Retention (% MR): 5 h, 500 μM
Experimental: (§1) appropriate calibration curve. For each compound, the determination was performed in three […]
(§2) Parallel Artificial Membrane Permeability Assay (PAMPA)
(§3) Each ‘donor solution’ was prepared from a solution of each compound (DMSO, 1 mM) diluted with 25 mM Phosphate Buffered Saline (PBS) at pH 7.4, up to a final concentration of 500 μM. The donor wells were filled with 150 µL of ‘donor solution’. The filters were coated with 5 μL of a solution of phosphatidylcholine in dodecane 1% (w/v) and the lower wells filled with 300 µL of ‘acceptor solution’ (50% v/v DMSO and PBS). The sandwich plate was assembled and incubated for 5 hours at room temperature under gentle shaking. At the end of the incubation time, the sandwich was disassembled and the amount of compound in the donor and acceptor wells was measured by LC-UV-MS. For each compound, the determination was performed in three independent experiments.
Apparent permeability (Papp) and membrane retention (%MR) were calculated according to the equations reported in reference. […]

[5] = type: in vitro ADME; conditions: human, 24 h, 100 µM, pH 7.4
Experimental: appropriate calibration curve. […]
(§4) Stability in Human Plasma
(§5) Pooled human plasma (1.5 mL, […]), PBS (1.4 mL, pH 7.4, 25 mM) and tested compound dissolved in DMSO (100 µL, 3.0 mM) were mixed in a test tube that was incubated at 37 […]
mixed with 600 µL of cold acetonitrile and centrifuged at 5000 rpm for 15 min [3]. The supernatant was removed and analyzed by LC-UV-MS. For each compound, the determination was performed in three independent experiments. […]

[6] = Stability in medium/serum solution; type: in vitro ADME; conditions: EMEM, 2 mM L-glut, 1 % FBS, 1 % Pen/Strep, 37 °C
Experimental: as §1, §2, §3
Apparent permeability (Papp) and membrane retention (%MR) were calculated according to the equations reported in reference.
as §4, §5
mixed with 600 µL of cold acetonitrile and centrifuged at 5000 rpm for 15 min [3]. The supernatant was removed and analyzed by LC-UV-MS. For each compound, the determination was performed in three independent experiments.
Stability in Medium/Serum solution
The stability of compounds under the experimental conditions used in the ENTRY-DYRA antiviral assay was evaluated. Each tested compound dissolved din DMSO (1.0 mL, 400 µM) was mixed in a test tube with EMEM, 2 mM L-glut, 1% FBS, 1% Pen/Strep solution (final concentration of the compound of 200 µM) and then incubated at 37 °C. At set time points (0.0, 0.08, 0.25, 0.50, 1.0, 3.0, and 24.0 h), samples of 100 µL were taken, mixed with 400 µL of cold acetonitrile and centrifuged at 5000 rpm for 15 min. The supernatant was removed and analyzed by UV/LC-MS. For each compound, the determination was performed in three independent experiments.

[7] = Stability in medium/serum solution; type: in vitro ADME; conditions: EMEM, 2 mM L-glut, 1 % FBS, 1 % Pen/Strep, 37 °C; remark: listed apart in the source
in vitro [8] = conditions: human
in vitro [9] = conditions: human; remark: listed apart in the source
in vitro [10] = conditions: human; remark: listed apart in the source
SARS-CoV-2 [11] = test: microbe, parasite or virus in culture; type: cell-based; conditions: for IC50: read-out: SARS-CoV-2 Calu-3 IC50 (DYRA protocol)
SARS-CoV-2 [12] = test: ENTRY-DYRA (entry inhibitor protocol), SARS-CoV-2 in Calu-3 cells; type: cell-based
in vitro [13] = conditions: human; remark: listed apart in the source
HeLa = conditions: read-out: HeLa CC50; HeLa cells
[14] = Cytotoxicity assay (CellTiter-Glo 2.0) in Huh7 cells; conditions: human
hRV2 [15] = test system: hRV2; parameters: method as in PMID 31729878; conditions: HeLa cells; cited from earlier work
hRV14 [16] = test system: hRV14; parameters: method as in PMID 31729878; conditions: HeLa cells; cited from earlier work
Enterovirus-A71 (EV-A71) = test system: Enterovirus-A71 (EV-A71); parameters: method as in PMID 28122178, PMID 31729878; conditions: at low micromolar concentration; cited from earlier work
coxsackievirus B3 (CVB3) = test system: coxsackievirus B3 (CVB3); parameters: method as in PMID 28122178, PMID 31729878; conditions: at low micromolar concentration; cited from earlier work
[17] = pH 7.4; cited from earlier work
[18] = PAMPA; cited from earlier work
[19] = C57BL/6 mice, up to 180 mg/kg; cited from earlier work
[20] = Severe acute respiratory syndrome coronavirus 2, Calu-3 cells, 72 h incubation, ±SD, NA: Not active
[21] = Severe acute respiratory syndrome coronavirus 2, Calu-3, 72 h
[22] = Calu-3 cells treated 1 h before infection, compound and virus removed, 72 h incubation

Row | SMILES | IC50 (PI4KIIIβ) | CC50 [1] | IC50 (ZIKV; Huh-7, Huh7 cells, DYRA, 72 h) | IC50 (hRV2 [2]; Rhinovirus A, HRV2, 72 h) | IC50 (hRV14 [3]; Rhinovirus B, HRV14, 72 h) | solubility (physchem) | Membrane Retention (% MR) (in vitro [4]) | Papp at 5 h, 500 μM (in vitro [4]) | Plasma Stability [5] | Stability in Medium/Serum 24 h [6] | Stability in Medium/Serum 48 h [7] | CC50 (in vitro [8]) | CC50 at 3 days (in vitro [9]) | viability at 4 h, 50 µM (in vitro [10]) | IC50 (SARS-CoV-2 [11]; [20]) | also measured
1 | Cc1nc(NC(=O)C(C)(C)C)sc1-c1csc(NCC(O)CO)n1 (stereo not shown) [4 a] | 0.29 ± 0.08 µM | > 100 µM | 46.5 ± 2.96 µM | 1.77 ± 0.62 µM | 2.32 ± 1.54 µM | 5.26 µg/mL (≈ 14.2 µM) | < 0.1% | 0.008 ×10⁻⁶ cm/s | 99.4% | 99.0% | 97.5% | > 200 µM | > 30 µM | 96% |  | 
2 | Cc1nc(NC(=O)C(C)(C)C)sc1-c1csc(N(CCO)CCO)n1 [4 b] | 0.24 ± 0.05 µM | > 100 µM | 5 ± 1.2 µM | 1.37 ± 1.31 µM | 2.07 ± 1.45 µM | 0.28 µg/mL (≈ 0.728 µM) | 0.94% | 0.021 ×10⁻⁶ cm/s | 90.2% | 91.4% | 84.9% | 125 µM | > 30 µM | 92.6% |  | 
3 | Cc1nc(NC(=O)C(C)(C)C)sc1-c1csc(NCC(C)(C)O)n1 [4 c] | 0.89 ± 0.2 µM | > 100 µM | 0.83 ± 0.31 µM | 0.39 ± 0.01 µM | 0.48 ± 0.14 µM | 0.32 µg/mL (≈ 0.868 µM) | < 0.1% | 0.323 ×10⁻⁶ cm/s | 92.3% | 77% | 67.3% | 37 µM | > 30 µM | 98.3% |  | 
4 | Cc1nc(NC(=O)C(C)(C)C)sc1-c1csc(N(CC(C)(C)O)C2CCCCC2)n1 [4 d] | 1.97 ± 0.79 µM | 17 µM | 0.51 ± 0.05 µM | 0.9 ± 0.72 µM | 1.4 ± 1.2 µM | 0.01 µg/mL (≈ 0.0222 µM) | 18.05% | 11.7 ×10⁻⁶ cm/s | 92.4% | 93.3% | 85.7% | 4 µM | 23.8 ± 1.7 µM | 94.8% | 1.57 ± 0.38 µM | selectivity index (SI) against SARS-CoV-2 under DYRA conditions (SARS-CoV-2 [11]; ratio between CC50 and IC50, Calu-3): 11; IC50 (SARS-CoV-2 [12]; Severe acute respiratory syndrome coronavirus 2, Calu-3 cells treated 1 h before infection, compound and virus removed, 72 h incubation, read-out: SARS-CoV-2 Calu-3 IC50 (ENTRY-DYRA conditions, in parenthesis) (converted)): 0.37 µM; selectivity index (SI) against ZIKV (ZIKV; ratio between CC50 and IC50, Huh7): 8; viability (in vitro [13]): > 95%
5 | Cc1nc2c(NCc3cccc(S(C)(=O)=O)c3)nccn2c1-c1ccc(O)c(F)c1 [BF738735, reference compound] |  |  |  |  |  |  |  |  |  |  |  |  |  |  |  | IC50 (hRV2 [2]): 0.39 ± 0.36 µM; IC50 (hRV14 [3]): 0.59 ± 0.28 µM; CC50 (HeLa): > 30 µM
6 | CN(C)C(=O)COC(=O)Cc1ccc(OC(=O)c2ccc(NC(=N)N)cc2)cc1 [CMT, Camostat, reference compound] |  | 200 µM |  |  |  |  |  |  |  |  |  |  |  |  |  | IC50 (SARS-CoV-2 [11]; [21]): 0.82 ± 0.32 µM; IC50 (SARS-CoV-2 [12]; Severe acute respiratory syndrome coronavirus 2, Calu-3, read-out: SARS-CoV-2 Calu-3 IC50 (ENTRY-DYRA conditions, in parenthesis)): 0.04 µM
7 | CCC(CC)COC(=O)[C@H](C)N[P@](=O)(OC[C@H]1O[C@@](C#N)(c2ccc3c(N)ncnn23)[C@H](O)[C@@H]1O)Oc1ccccc1 [RMD, Remdesivir, reference compound] |  | 97 µM |  |  |  |  |  |  |  |  |  |  |  |  | 0.11 ± 0.04 µM | 
8 | CC(C)OC(=O)[C@H](C)N[P@](=O)(OC[C@H]1O[C@@H](n2ccc(=O)[nH]c2=O)[C@](C)(F)[C@@H]1O)Oc1ccccc1 [SOF, Sofosbuivir, reference compound] |  |  |  |  |  |  |  |  |  |  |  |  |  |  |  | IC50 (ZIKV; Huh-7, 72 h): 2.7 ± 0.5 µM; CC50 [14]: 200 µM
9 | Cc1nc(NC(=O)C(C)(C)C)sc1-c1csc(Nc2cccc(C(=O)O)c2)n1 [compound 1] |  | 45 µM |  |  |  | 0.21 µg/mL (≈ 0.504 µM) | < 0.1% | 0.052 ×10⁻⁶ cm/s | 99.1% | 96.4% | 93.1% | 110 µM | 36 µM | 94.1% |  | IC50 (SARS-CoV-2 [11]; [21]): 7.45 ± 2.47 µM; SARS-CoV-2 Calu-3 IC50 (ENTRY-DYRA conditions, in parenthesis) (SARS-CoV-2 [12]; [22]): no effect on the entry phase; IC50 (ZIKV; Huh-7, 72 h): 13.8 ± 4.08 µM; IC50 (hRV2 [15]): 9.7 µM; IC50 (hRV14 [16]): 15.3 µM; inhibition of EV-A71 replication in infected cells (Enterovirus-A71 (EV-A71)): inhibited; inhibition of CVB3 replication in infected cells (coxsackievirus B3 (CVB3)): inhibited
10 | CC(=O)c1cccc(N(CCO)c2nc(-c3sc(NC(=O)C(C)(C)C)nc3C)cs2)c1 [compound 2] | 2.1 ± 0.17 µM | 40 µM | 1 ± 0.1 µM |  |  |  | < 0.1% |  |  | 98.5% | 90.4% | 16 µM | 17 µM | 94.5% | 3.95 ± 1.48 µM | SARS-CoV-2 Calu-3 IC50 (ENTRY-DYRA conditions, in parenthesis) (SARS-CoV-2 [12]; [22]): no effect on the entry phase; IC50 (hRV2 [15]): 6.1 µM; IC50 (hRV14 [16]): > 9.1 µM; inhibition of EV-A71 replication in infected cells (Enterovirus-A71 (EV-A71)): inhibited; inhibition of CVB3 replication in infected cells (coxsackievirus B3 (CVB3)): inhibited; Aqueous Solubility [17]: 0.05* μg/mL; Papp [18]: 1,1 10^−6 cm/sec; tolerability, acute toxicity and histological alterations in key biodistribution organs [19]: well tolerated

Source: PMC8427023, “Bithiazole Inhibitors of Phosphatidylinositol 4‐Kinase (PI4KIIIβ) as Broad‐Spectrum Antivirals Blocking the Replication of SARS‐CoV‐2, Zika Virus, and Human Rhinoviruses” (Chemmedchem, 2021)
